Results reported in patent US20230381163A1, “DABIGATRAN COMPOSITIONS AND METHODS OF TREATING AGE-RELATED MACULAR DEGENERATION” (The United States Government As Represented By The …, priority 2022, published 2023).

How the values were obtained:
[1] = system: VEGF secretion in ARPE-19 cells; test: VEGF secretion into apical supernatant of ARPE-19 monolayers (ELISA); format: cell-based, human
Description: (§1) Cell culture experiments: Cells. […] Frontiers in Aging Neuroscience 9).
VEGF ELISA. VEGF in the supernatant was measured using the Quantikine® Human VEGF Immunoassay (R & D System) according to the manufacturer's protocol. In brief, 200 μl of standard/sample was mixed with 50 μl of assay diluent and added to the plate precoated with the capture antibody. After washing, 200 μl of the VEGF detection antibody (polyclonal antibody specific for human VEGF conjugated to horseradish peroxidase) was added, followed by freshly prepared substrate reagents (stabilized hydrogen peroxide and tetramethylbenzidine). The reaction was terminated using 50 μl of stop solution and absorbance was measured at λ1 450 nm with wavelength correction λ2 at 540 nm. VEGF concentration of samples were calculated comparing the absorbance with the standards and converted into fold change considering the serum-free condition as 1 in the scale.

[2] = system: CTGF expression in ARPE-19 cells; test: Thrombin-induced CTGF expression in ARPE-19 cell lysates (western blot); details: for reduction of thrombin-induced CTGF expression: thrombin 1 U/mL
Description: Cell culture experiments: Cells. Human ARPE-19 (ATCC® CRL-2302™; American Type Culture Collection, Manassas VA) cells were cultured in DMEM cell culture media (Gibco/ThermoFisher Scientific) containing high glucose DMEM with D-glucose (4.5 g/L), L-glutamine, sodium pyruvate (110 mg/L), Penicillin and Streptomycin (1×) and 10% of FBS. Cells (<passage 10 after purchase) were expanded in T75 cell culture flasks at 37° C., in the presence of 5% CO2. Confluent cells were trypsinized with 0.05% trypsin (Gibco), and equal numbers of cells were seeded on 6-well transwell filters/plate (Costar). […] Integrity of the cell monolayer was assessed by Transepithelial resistance (TER) measurements using an EVOM volt-ohmmeter (World Precision Instruments) four weeks after plating. RPE monolayers with a stable TER repeatedly measured as ˜40-45 S2 cm 2 were used for these experiments.
Treatments. Prior to each experiment, the cell monolayer was washed with serum-free medium (SFM) and maintained in SFM for 24 hours. […] Treatments were performed on the apical side of the transwell membrane, which represents the retinal side of the RPE in vivo. Some of the cells were treated with thrombin (EMD Millipore Corp), complement components C3a, C5a (Complement Technology), thrombin agonist PAR1-AP (Sigma-Aldrich; amino acid sequence SFLLRN (SEQ ID NO: 1)), thrombin inhibitor dabigatran etexilate (Sigma-Aldrich), C3 inhibitor compstatin (R&D Systems), AP inhibitor TT30 (Alexion Therapeutics), a protease inhibitor alpha1-antitrypsin (Sigma-Aldrich), and the thrombin receptor proteinase activated receptor 1 inhibitor SCH 79797 (Sigma-Aldrich). Treatments were performed 60 min prior to the addition of thrombin. Cell culture supernatant and lysate were collected after specific time points or after 24 hrs of treatment and stored at −20° C. for later use.
Western blotting. […] Cell lysates were collected in RIPA cell lysis buffer containing 150 mM NaCl, 1.0% IGEPAL® CA-630, 0.5% sodium deoxycholate, 0.1% SDS, 50 mM Tris (pH 8.0) (Sigma-Aldrich) in presence of 1×protease inhibitor (Sigma-Aldrich). Equal amount of each samples were loaded on 4-20% Criterion™ TGX™ precast gels (Bio-Rad Laboratories, Inc.) (Annamalai, B., et al. (2020). Invest Ophthalmol Vis Sci 61, 45). Proteins were transferred to a nitrocellulose membrane and incubated in primary antibody followed by appropriate secondary antibodies coupled to peroxidase, followed by band development and detection using Clarity™ Western ECL blotting substrate (Bio-Rad Laboratories, Inc.) and chemiluminescent detection. Protein bands were scanned and densities quantified using ImageJ software. The following antibodies were used: C3a (1:1000; Complement Technology), C5a (1:1000; Abcam), connective tissue growth factor/CTGF (1:1000; Abcam), C3d anti-C3d (clone 11, 1:1000; generation of the antibody is described in (Thurman, J. M., et al. (2013). J Clin Invest 123, 2218-2230)), VEGF (1:1000, Santa Cruz Biotechnology, Inc.), β-actin (1:2000; Cell Signaling Technology) and concentrations selected based on the data sheet recommendations.
ARPE-19 cell monolayers were treated with thrombin (0.5-10 U/ml) and cell lysates were collected and analyzed for CTGF levels at 4 hrs post treatment by western blotting.

complement component C3 = test: Thrombin-mediated C3 cleavage in apical supernatants of ARPE-19 cells (western blot); format: cell-based, human; details: 100 μM
Description: Second, it was tested whether thrombin can cleave complement components (Huber-Lang, M., et al. (2006). Nat Med 12, 682-687; and Krisinger, M. J., et al. (2012). Blood 120, 1717-1725), specifically C3 and C5, producing cleavage products potentially different from those produced by classical convertases. To test the effects of thrombin on complement cleavage, the apical supernatants of treated ARPE-19 cell monolayers were analyzed by western blotting. Cleavage of C3α was evaluated using an antibody specific for C3a (FIG. 5A, left-hand blot). The C3a antibody detected C3, the C3α band as well as other fragments containing C3a. Thrombin caused a concentration dependent cleavage of complement component C3 (˜190 kDa), caused reduction of the 120 kDa C3a band and generation of a new 80 kDa fragment. Fragments at 32 kDa and 9-10 kDa with higher doses of thrombin treatment (FIG. 5A, 10 U/mL) were also observed. The 9-10 kDa band ran at the same molecular weight as purified C3a (FIG. 11). The reduction of the 120 kDa fragment was correlated with the generation of the 80 kDa fragment (FIG. 5B). The loss of the 120 kDa fragment was prevented by either dabigatran (10 μM) or the C3 inhibitor compstatin (100 μM), which inhibits complement both on cell membranes as well as in fluid phase, but not by TT30 (10 μM), which is an inhibitor that prevents membrane-bound AP activation (FIG. 5C). […]

thrombin = thrombin (Homo sapiens, UniProt P00734); test: Thrombin activity in cell-free system; details: 100 μM
Description: Thrombin activity in cell-free system. To measure the level of active thrombin in cell-free system, known concentrations of thrombin were prepared in 100 μl of assay buffer (50 mM Tris, 100 mM NaCl, and 0.01% BSA; pH 7.5), subsequently 50 μl of thrombin substrate was added and incubated at 37° C. Fluorescence was measured at 405 nm using the Biotek Synergy HT Microplate Reader and thrombin activity was determined by extrapolation from a thrombin standard curve. Effects of inhibitors were tested by pre-incubating the inhibitors with thrombin, before substrate incorporation.

ARPE-19 cell monolayers = test: Transepithelial resistance (TER) of ARPE-19 monolayers; format: cell-based, human
Description: as §1
Thrombin reduces barrier function in RPE cells and induces CTGF expression and VEGF secretion. […] Thrombin is a serine-protease and is a known contributor to the damage of the blood-brain barrier (Machida, T., et al. (2017). PLoS One 12, e0177447). To examine the effects of thrombin on the blood-retina barrier (i.e., TER), dose- (0.5-10.0 U/ml) and time- (4 and 24 hrs) dependent treatments were performed on stable ARPE-19 cell monolayers, and treatment effects on TER levels to TER at baseline (serum free media/SFM before treatment, 0 hrs) (FIG. 2) were compared.

CC(C)c1ccc(Cn2ccc3c4c(N)nc(NC5CC5)nc4ccc32)cc1 [SCH79797]
effect on thrombin-induced VEGF secretion ([1]; SCH79797): reduced | reduction of thrombin-induced CTGF expression ([2]; SCH79797 250 μM): 1.7 fold

CC[C@H](C)[C@H](N)C(=O)N[C@H]1CSSC[C@@H](C(=O)N[C@H](C(N)=O)[C@@H](C)O)NC(=O)[C@H](CCCN=C(N)N)NC(=O)[C@H](Cc2cnc[nH]2)NC(=O)[C@H](Cc2cnc[nH]2)NC(=O)CNC(=O)[C@H](Cc2c[nH]c3ccccc23)NC(=O)[C@H](CC(=O)O)NC(=O)[C@H](CCC(N)=O)NC(=O)[C@H](C(C)C)NC(=O)[C@H](C(C)C)NC1=O [compstatin]
effect on thrombin-induced VEGF secretion ([1]; compstatin): partially reduce | effect on thrombin-induced CTGF expression ([2]; compstatin): partially reduce | effect on thrombin-mediated loss of the 120 kDa C3 fragment (complement component C3): prevented | effect on thrombin enzyme activity (thrombin): did not affect

C3a: complement component, anaphylatoxin (Complement Technology)
effect on VEGF secretion ([1]; C3a, 260 nM): weak stimulator

alpha1-antitrypsin: general (non-specific) protease inhibitor (Sigma-Aldrich)
reduction of thrombin-induced CTGF expression ([2]; alpha1-antitrypsin 1 mg/mL): 5.3 fold

thrombin
increase of VEGF in apical supernatants ([1]; thrombin alone): 2.5 fold | effect on TER (ARPE-19 cell monolayers; thrombin 0.5 U/mL, apical): barely affected | effect on TER (ARPE-19 cell monolayers; thrombin 2.5 U/ml, 24 hrs): significant damage to the epithelial barrier integrity | effect on TER (ARPE-19 cell monolayers; thrombin 5 U/ml and 10 U/ml, 4 hrs): significant barrier function loss | effect on CTGF expression ([2]; thrombin, 4 hrs, P<0.05): significantly increased

B1: C5a: complement component, anaphylatoxin (Complement Technology) (protein, UniProt P01031 678-751, looked up)
C5a anaphylatoxin: TLQKKIEEIAAKYKHSVVKKCCYDGACVNNDETCEQRAARISLGPRCIKAFTECCVVASQLRANISHKDMQLGR
modifications: C5a anaphylatoxin
effect on VEGF secretion ([1]; C5a, 52 nM): increasing VEGF levels to that identified by thrombin stimulation
